Assay results reported in a melting point compilation (Tetko et al.; mined from patent text by program, amines drawn as free bases though some values may be those of a salt).

Row | SMILES | melting point [°C]
1 | COC(=O)NCc1ccc2ccn(C3CCN(CCc4ccc(F)cc4)CC3)c2c1 | 117 to 118
2 | C[C@]12CC[C@H](O)CC1=CCC1C2CC[C@@]2(C)C1CC[C@@H]2c1c[nH]nn1 (stereo not given in full) | 275 to 277
3 | COc1cc(O)ccc1/C=C/C(=O)CC(=O)CCc1ccc(O)cc1 | 131 to 135
4 | Nc1nc(-c2ccccc2)c(-c2ccnc(Nc3cccc(I)c3)n2)s1 | 243 to 244
5 | COc1cc(N)c(C#N)cc1C(=O)O | 237
6 | CS(=O)(=O)N1CCC(COCc2cc(C(F)(F)F)cc(C(F)(F)F)c2)(c2ccccc2)CC1 | 102 to 104
7 | CSc1nn2c(N(C)C)cc(C)nc2c1S(=O)(=O)c1ccc2ccccc2c1 | > 230
8 | Cn1c(C(F)(F)F)cc(=O)n(-c2ccc3snc(C(Cl)Br)c3c2)c1=O (stereo not given) | 93 to 96
9 | O=C1N=C(N2CCSCC2)SC1=Cc1cccc(-c2cc(F)c(O)c(C34CC5CC(CC(C5)C3)C4)c2)c1 | 180 to 184
10 | CC(=O)c1cccc2ccc(CC#N)cc12 | 88
11 | CC(=O)Nc1ccc(S(=O)(=O)Nc2ccc(C(O)(C(F)(F)F)C(F)(F)F)cc2)cc1 | 198 to 200
12 | COCc1ncc(-n2nc(C)cc2C)nc1Nc1ccc(Cl)cc1 | 105 to 108
13 | CN1Cc2c(C#Cc3ccc(Cl)cc3)ncn2-c2ccc(F)cc2C1=O | 221 to 222
14 | O=C(NC1N=C(c2ccccc2F)c2ccccc2N(C(=O)c2ccc(Cl)cc2)C1=O)c1ccc(Cl)cc1 (racemic) | 190 to 191
15 | CCN1CC[C@@H]2CC(=O)c3cc(F)ccc3[C@@H]2C1 (relative stereo) | > 220
16 | COC(=O)C(OC)c1ccc2oc(-c3ccc(Cl)cc3)nc2c1 (stereo not given) | 100 to 105
17 | CC12CC3CC(C1)CC(CNC(=O)n1cc(F)c(=O)[nH]c1=O)(C3)C2 | 172
18 | CCOP(=O)(/C=C/c1cn(-c2ccccc2)nc1OCc1ccc(OCc2nc(-c3ccc(C(=O)O)cc3)oc2C)c(OC)c1)OCC | 194 to 195
19 | C=C(Cl)CSC1=C(O)CC(C)(C)CC1=O | 103 to 106
20 | COc1ccc(CN2Cc3c(-c4nc(C5CC5)no4)ncn3-c3ccc(OC)cc3C2=O)c(OC)c1 | > 240
21 | CC1(CF)C=C(C#N)c2cc([N+](=O)[O-])ccc2O1 (stereo not given) | 169 to 171
22 | Clc1cc(CC(Cl)(Cl)Cl)cnc1Cl | 98 to 99
23 | COc1ccc(-c2ccc3c(C(=O)O)cccc3c2)cc1C12CC3CC(CC(C3)C1)C2 | 222

Row | SMILES | melting point [°C]
24 | CCCCNc1nc(-c2ccccc2)co1 | 52 to 53
25 | O=C(O)C1=Cc2cc(Oc3ccccc3)ccc2OC1C(F)(F)F (stereo not given) | 185 to 186
26 | c1csc(-c2nc(COc3ccc(CCCn4ccnc4)cc3)co2)c1 | 84 to 85
27 | CC(C)(C)c1cc(CCc2ccccc2NC(=O)N2CCN(Cc3ccccc3)CC2)cc(C(C)(C)C)c1O | 70 to 72
28 | O=C(Oc1ccc(Cl)cc1)c1c2ccccc2nc2ccccc12 | 170
29 | N#CC(C#N)=C(N)NCCCc1ccccc1 | 165 to 167
30 | CC(C)(CCCC(=O)O)c1cc(C(=O)O)c(O)c(C(C)(C)CCCC(=O)O)c1 | 161 to 163
31 | C=CCNC(=O)NCC1Cc2ccc(-c3ccc(=O)[nH]n3)cc2C1 (stereo not given) | 208 to 209
32 | Cc1ccccc1[C@H](O)CCc1c(C(=O)N(C)C)cc2c(nc(C)n2C)c1O | 200 to 202
33 | O=C(CCC(=O)N1CCCCC1)c1ccc(F)cc1 | 70 to 71
34 | CC(=O)Nc1ccc(Cc2nc3c(c4c2[nH]c2ccccc24)C(=O)CC(C)(C)C3)cc1 | 153 to 154
35 | COC(=O)c1cc(OC)c(OC)c([N+](=O)[O-])c1 | 75 to 76
36 | Cc1cc2c(-c3ccccc3C)c(C(=O)O)c(=O)n(C)c2cc1Cl | 204 to 205
37 | CS(=O)C1C=Nc2cc(Cl)ccc2C1=O (stereo not given) | 247 to 249
38 | CCCOc1ccc(F)c2c(=O)c3ccccc3sc12 | 125 to 127
39 | c1cnc(NCCCNCC2CCc3ccc4c(c3O2)CCCC4)nc1 (stereo not given) | 57.6
40 | C=CC(=O)Nc1ccc(-c2ccc(C(=O)N3CCN4CCC3CC4)o2)cc1 | 230 to 246
41 | Nc1nc(N)c2c(Sc3ccccc3)cccc2n1 | 195 to 197
42 | CCc1[nH]n(C2CCCC2)c2nc(-c3cccc(OCCN4CCOCC4)c3)nc(=O)c1-2 | 173 to 176
43 | CCCCC(=O)Oc1cccc(NC(=O)CC(C)=O)c1 | 65
44 | CS(=O)c1ccc2ncn(C=CC(=O)O)c(=O)c2c1 (stereo not given) | 275 to 276
45 | CC(C)CCC1C(=O)N(CCl)S(=O)(=O)N1C (stereo not given) | 59 to 60
46 | O=C(Nc1cc(C(F)(F)F)ccc1N1CCOCC1)c1ccncc1 | 172 to 173

Continued, values first:

Row | melting point [°C] | SMILES
47 | 119 to 123 | CC(C)(Cl)Cn1ncc(OCc2ccc(I)nc2)c(Cl)c1=O
48 | 145 to 147 | Clc1nc(-c2cccnc2)sc1-c1cccnc1
49 | 93 to 95 | CCC1CCC(Oc2cc(F)cc(C(=O)Nc3ccc(OCc4ccncc4)c4ccccc34)c2)CC1 (stereo not given)
50 | 102 to 103 | Cc1oc(-c2ccccc2)nc1CCc1ccc(/C=C/CO)cc1
51 | 95 | COC1CC(n2cc(C=CBr)c(=O)n(C)c2=O)OC1CF (stereo not given)
52 | 238 to 239 | O=C(O)COc1ccc(C(=O)CCN2CCN(c3ccncc3)CC2)cc1
53 | 140 to 146 | Cc1nc(CO)cn1Cc1ccccc1
54 | 132 to 133 | CCc1scc(C(=O)O)c1N
55 | 71 to 72 | CCc1ncnc(N[C@H]2CC[C@@H](CO)CC2)c1Cl
56 | 95 to 96 | O=c1c(Br)c(Br)cnn1Cc1ccccc1
57 | 75 to 77 | CC(C)(C)OC(=O)N1CC2CC(CN(CC(O)COc3ccc(C(C)(C)C)cc3)C2)C1 (stereo not given)
58 | 253 to 255 | Cc1nc2c(N)nc3ccccc3c2n1CC(C)(C)OCCS(C)(=O)=O
59 | 152 to 153 | COc1ccc(Oc2ccc(S(C)(=O)=O)cc2)cc1
60 | > 300 | Oc1ccnc2cc(Cl)c(F)cc12
61 | 99 to 101 | CC(C)(C)C(F)(F)c1ccc(C[C@@H](NC(=O)c2cccc3c(Cl)cccc23)[C@@H](O)c2cccc(Cl)c2)cc1 (racemic)
62 | 89 to 91 | CCOCCOC(=O)C1=C(C)NC(C#N)=C(C(=O)OCC)C1c1cccc([N+](=O)[O-])c1 (stereo not given)
63 | 162 to 163 | CC(C)n1nc(-c2c(-c3ccccc3)nn3ccc(OCCN4CCCC4=O)cc23)ccc1=O
64 | 115 to 117 | COc1cc(N)c(Cl)cc1C(=O)NCC1CCN(CCCCCC(=O)c2ccc(F)cc2F)CC1
65 | 218 to 219 | CC(C)(C)c1cc(-c2ccc(NC(=O)CCCC(=O)O)cc2)cc(C(C)(C)C)c1O
66 | 250 | CN(C(=O)Nc1ccc(Cl)cc1)c1nnc(Cl)s1
67 | 127 to 128 | CCCNC(=O)c1cc2cc(OCCNC[C@H](O)COc3ccccc3)ccc2o1
68 | 190 | Nc1c([N+](=O)[O-])cnn1-c1c(Cl)cc(C(F)(F)F)cc1Cl
69 | 160 to 161 | O=C(O)CC1CCCc2c1n(Cc1ccc(Cl)cc1Cl)c1c(F)cc(F)cc21 (stereo not given)
70 | 183 to 185 | Cn1c(-c2cccs2)n[nH]c1=O
71 | 141 to 142 | CCCOc1cc(-c2nc(-c3ccc(C(=O)OC)o3)cs2)ccc1OC
72 | 125 to 126 | CC12CCC3C(CC(Cl)C4(O)CC=CCC34C)C1CC=C2Br (stereo not given)
73 | 82 to 83 | Cc1cc([N+](=O)[O-])ccc1OC1CCN(C(=O)OC(C)(C)C)CC1

Row | melting point [°C] | SMILES
74 | 171 | CC(C)(C)C(O)C(C(Sc1ccccc1)c1ccc(F)cc1)n1cncn1 (stereo not given)
75 | 203 to 208 | CC(=O)COC1CC2C3CCC4=CC(=O)CCC4(C)C3(F)C(O)CC2(C)C1(O)C(=O)CO (stereo not given)
76 | 177 to 178 | CC(C)Cn1c(=O)n(C)c(=O)c2c(Sc3ccc(N)cc3)c(Cc3cccc4ccccc34)sc21
77 | 194 to 197 | CN(C)C(=O)C1(C)CN(C(=O)Nc2ccc(Cl)cc2)N=C1c1ccc(Cl)cc1 (stereo not given)
78 | 205 to 206 | CC(C)(C)OC(=O)c1nc(-c2ccccc2)[nH]c1-c1ccncc1
79 | 109 to 111 | Cc1c(NC(=O)CC(C)(C)C)cc2c(c1C)OC(C)(C)C2(O)c1ccccc1 (stereo not given)
80 | 243 to 245 | CCOC(=O)c1cn(CC)c2cc(-c3ccno3)ccc2c1=O
81 | 47.5 to 49 | O=C(Cl)Cc1ccc([N+](=O)[O-])cc1
82 | 218 | CN(Cc1cccc(-c2ccc(CC3SC(=O)NC3=O)cc2)c1)C(=O)c1ccc2cc(O)ccc2c1 (stereo not given)
83 | 191 to 192 | COC(=O)c1cc(C)c(C(=O)O)c(C)c1
84 | 166 to 167 | CCc1ccc(CCOc2ccc(C=C3SC(=O)NC3=O)cc2)nc1
85 | 188 | CCCCN1CCC(C(=O)O)(S(=O)(=O)c2ccc(OCCC(C)C)cc2)CC1
86 | 134 to 135 | O=C(Nc1ccc(C(F)(F)F)nc1C1CCN(CC=Cc2ccc(Cl)cc2)CC1)c1ccnc(Cl)c1
87 | 170 to 173 | Cc1sc2nc(C=O)c(C)c(=O)n2c1C
88 | 66 to 68 | CC(=O)c1ccc(Oc2ccc(Cl)cc2)cc1
89 | 213 | N#CC(=Cc1ccc[nH]1)C(=O)O
90 | 193 | CCOC(=O)c1ccc(-c2ccc(OCCO)c(-c3ccc(N4CCCC4)c(C(C)(C)C)c3)c2)cc1
91 | 109 to 110 | C[C@@H](NC(=O)[C@H](Cc1ccc(OC(C)(C)C)cc1)N(C)C(=O)OC(C)(C)C)C(=O)O
92 | 221 to 222 | CCOCc1nc2c(N)nc3cc(OCc4cccc(OC)c4)ccc3c2n1CC(C)(C)NS(C)(=O)=O
93 | 153 to 155 | Cc1oc(-c2ccc(F)cc2)nc1CO
94 | 216 to 218 | COc1ccc(C(=O)c2ccc(=O)[nH]c2C=CN(C)C)cc1
95 | 99 to 100 | CCOc1nn(-c2ccc(C(F)(F)F)cn2)cc1CCCOc1cc(CCC(=O)O)cc(OC)c1
96 | 197 to 198 | Cc1cccc(N2CCCCC2)c1NC(N)=S
97 | 260 to 262 | Cc1ccc(-c2ccc(C(=O)Nc3ccc4cc(CN5CCCC5)ccc4c3)cn2)cc1
98 | 200 to 202 | O=C(Oc1ccccc1)N1CCC2(CC1)SC(c1ccc(Cl)c(Cl)c1)c1ccccc12 (stereo not given)
99 | 82 | CC#Cc1ccc(C2CCC(C3CCC(CCC)CC3)CC2)cc1 (stereo not given)
100 | 208 to 210 | COc1cc(-c2nc(-n3nccn3)c3c(C)c(C#N)sc3n2)cc(OC)c1OC
